Consider three molecules from US12275731B2, “Azaindole inhibitors of wild-type and mutant forms of LRRK2” (DANA-FARBER CANCER INSTITUTE, INC., priority 2018, dated 2025).

Structures are written as SMILES.

Common to all, as to test: KinomeScan profiling
Holding throughout (assay type): binding

The target in one assay is LIMK1 (Homo sapiens, UniProt P53667). Conditions: LIMK1, 1 μM; read-out: % control. In outline:
(§1)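 Luminescence (RLU) was converted to percent of control, with DMSO set as 100% and a reference compound as 0%. Test compounds were run at 1 μM against 468 kinases. Kinases showing below 35% of control were scored as bound.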

In a further assay the target is T1, NEK5 (Homo sapiens, UniProt Q6P3R8).
T1 sequence (Q6P3R8 1-708): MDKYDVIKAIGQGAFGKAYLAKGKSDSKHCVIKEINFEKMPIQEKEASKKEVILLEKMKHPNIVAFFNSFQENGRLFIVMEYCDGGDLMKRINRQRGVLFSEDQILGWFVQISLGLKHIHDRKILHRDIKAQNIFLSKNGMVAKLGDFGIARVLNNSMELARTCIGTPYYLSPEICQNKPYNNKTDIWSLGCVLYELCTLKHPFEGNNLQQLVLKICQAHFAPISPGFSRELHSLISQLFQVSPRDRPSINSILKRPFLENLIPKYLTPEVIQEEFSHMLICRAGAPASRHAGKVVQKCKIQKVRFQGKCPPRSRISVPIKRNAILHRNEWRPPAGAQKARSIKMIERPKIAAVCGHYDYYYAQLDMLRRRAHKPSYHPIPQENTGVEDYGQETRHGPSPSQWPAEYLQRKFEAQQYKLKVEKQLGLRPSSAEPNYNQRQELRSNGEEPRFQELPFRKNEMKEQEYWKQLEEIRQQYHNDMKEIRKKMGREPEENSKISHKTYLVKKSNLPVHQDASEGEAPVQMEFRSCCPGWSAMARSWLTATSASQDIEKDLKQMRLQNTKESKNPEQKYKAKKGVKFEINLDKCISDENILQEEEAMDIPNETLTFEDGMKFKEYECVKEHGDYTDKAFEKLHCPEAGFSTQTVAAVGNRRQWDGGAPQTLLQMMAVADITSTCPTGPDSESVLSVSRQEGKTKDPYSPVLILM
Conditions: NEK5, 1 μM; read-out: % control. In outline: as §1

The target in the next assay is T2, TLK1 (Homo sapiens, UniProt Q9UKI8).
T2 sequence (Q9UKI8 1-766): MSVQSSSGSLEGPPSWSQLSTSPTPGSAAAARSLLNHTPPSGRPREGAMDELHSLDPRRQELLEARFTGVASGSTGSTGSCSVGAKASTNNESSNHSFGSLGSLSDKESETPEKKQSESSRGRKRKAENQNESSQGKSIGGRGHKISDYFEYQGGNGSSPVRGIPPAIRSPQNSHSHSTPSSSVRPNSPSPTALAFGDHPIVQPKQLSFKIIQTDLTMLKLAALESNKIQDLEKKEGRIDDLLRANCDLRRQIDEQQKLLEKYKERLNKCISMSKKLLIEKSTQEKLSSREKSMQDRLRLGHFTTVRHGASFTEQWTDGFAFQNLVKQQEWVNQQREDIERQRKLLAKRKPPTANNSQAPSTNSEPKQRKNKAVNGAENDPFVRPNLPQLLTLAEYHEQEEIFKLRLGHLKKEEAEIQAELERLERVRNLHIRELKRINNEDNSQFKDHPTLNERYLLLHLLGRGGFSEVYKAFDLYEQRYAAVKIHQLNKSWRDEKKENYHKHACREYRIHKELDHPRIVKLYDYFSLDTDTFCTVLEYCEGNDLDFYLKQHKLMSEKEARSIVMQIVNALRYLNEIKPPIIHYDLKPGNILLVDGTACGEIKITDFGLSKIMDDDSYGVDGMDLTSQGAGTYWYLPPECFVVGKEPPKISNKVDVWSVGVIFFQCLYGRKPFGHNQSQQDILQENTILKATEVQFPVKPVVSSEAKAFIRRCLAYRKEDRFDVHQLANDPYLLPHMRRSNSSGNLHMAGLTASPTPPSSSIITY
The following applies: TLK1, 1 μM; read-out: % control. In outline:
as §1

The target of a further assay is MLK2 (Homo sapiens, UniProt Q02779). The following applies: MLK2, 1 μM; read-out: % control. In outline:
as §1

The target of the next assay is T3, EPHB4 (Homo sapiens, UniProt P54760).
T3 sequence (P54760 16-987): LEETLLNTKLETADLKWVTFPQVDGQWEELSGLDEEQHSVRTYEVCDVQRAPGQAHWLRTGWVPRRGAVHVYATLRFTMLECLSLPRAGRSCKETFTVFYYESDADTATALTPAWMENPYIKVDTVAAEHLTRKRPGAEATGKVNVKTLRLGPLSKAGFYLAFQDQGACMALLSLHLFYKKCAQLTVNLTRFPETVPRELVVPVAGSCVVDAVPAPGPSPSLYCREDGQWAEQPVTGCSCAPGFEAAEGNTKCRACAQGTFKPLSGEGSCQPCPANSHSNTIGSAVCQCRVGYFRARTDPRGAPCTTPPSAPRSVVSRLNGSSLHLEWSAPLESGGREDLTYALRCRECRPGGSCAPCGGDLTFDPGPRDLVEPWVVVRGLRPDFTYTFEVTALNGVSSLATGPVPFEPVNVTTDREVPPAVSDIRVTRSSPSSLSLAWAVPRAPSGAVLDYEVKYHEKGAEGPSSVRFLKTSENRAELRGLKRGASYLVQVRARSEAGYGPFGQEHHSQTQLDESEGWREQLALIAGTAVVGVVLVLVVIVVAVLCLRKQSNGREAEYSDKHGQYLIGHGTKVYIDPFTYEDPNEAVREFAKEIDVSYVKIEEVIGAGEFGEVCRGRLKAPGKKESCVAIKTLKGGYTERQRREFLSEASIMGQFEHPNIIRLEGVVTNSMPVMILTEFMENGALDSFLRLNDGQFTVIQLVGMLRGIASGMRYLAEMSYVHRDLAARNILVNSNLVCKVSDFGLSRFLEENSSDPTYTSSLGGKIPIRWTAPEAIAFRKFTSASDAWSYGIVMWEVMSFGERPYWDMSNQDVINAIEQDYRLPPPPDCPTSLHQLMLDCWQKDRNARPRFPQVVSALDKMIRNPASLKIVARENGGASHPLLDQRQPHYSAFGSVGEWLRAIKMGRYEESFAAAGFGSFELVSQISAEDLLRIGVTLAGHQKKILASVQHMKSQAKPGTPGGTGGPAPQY
Conditions: EPHB4, 1 μM; read-out: % control. Put shortly:
as §1

Chain of LIMK1 (P53667 whole entry): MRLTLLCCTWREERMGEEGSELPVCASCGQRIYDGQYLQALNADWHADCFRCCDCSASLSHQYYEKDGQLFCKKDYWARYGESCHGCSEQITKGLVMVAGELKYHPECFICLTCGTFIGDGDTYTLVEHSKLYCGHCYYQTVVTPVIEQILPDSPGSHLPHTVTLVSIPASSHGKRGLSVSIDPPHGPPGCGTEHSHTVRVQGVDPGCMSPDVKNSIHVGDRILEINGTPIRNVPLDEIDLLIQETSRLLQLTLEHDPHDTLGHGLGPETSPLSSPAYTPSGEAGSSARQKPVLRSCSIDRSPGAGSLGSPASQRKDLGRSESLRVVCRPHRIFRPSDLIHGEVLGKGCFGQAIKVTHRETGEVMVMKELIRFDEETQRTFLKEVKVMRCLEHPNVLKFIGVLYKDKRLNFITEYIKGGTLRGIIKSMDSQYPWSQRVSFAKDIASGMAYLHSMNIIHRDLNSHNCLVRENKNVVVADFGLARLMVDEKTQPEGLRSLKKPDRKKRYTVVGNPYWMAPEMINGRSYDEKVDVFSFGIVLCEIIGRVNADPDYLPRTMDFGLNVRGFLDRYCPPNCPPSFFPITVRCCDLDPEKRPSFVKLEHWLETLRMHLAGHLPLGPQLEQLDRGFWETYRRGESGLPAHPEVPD
Chain of MLK2 (Q02779 whole entry): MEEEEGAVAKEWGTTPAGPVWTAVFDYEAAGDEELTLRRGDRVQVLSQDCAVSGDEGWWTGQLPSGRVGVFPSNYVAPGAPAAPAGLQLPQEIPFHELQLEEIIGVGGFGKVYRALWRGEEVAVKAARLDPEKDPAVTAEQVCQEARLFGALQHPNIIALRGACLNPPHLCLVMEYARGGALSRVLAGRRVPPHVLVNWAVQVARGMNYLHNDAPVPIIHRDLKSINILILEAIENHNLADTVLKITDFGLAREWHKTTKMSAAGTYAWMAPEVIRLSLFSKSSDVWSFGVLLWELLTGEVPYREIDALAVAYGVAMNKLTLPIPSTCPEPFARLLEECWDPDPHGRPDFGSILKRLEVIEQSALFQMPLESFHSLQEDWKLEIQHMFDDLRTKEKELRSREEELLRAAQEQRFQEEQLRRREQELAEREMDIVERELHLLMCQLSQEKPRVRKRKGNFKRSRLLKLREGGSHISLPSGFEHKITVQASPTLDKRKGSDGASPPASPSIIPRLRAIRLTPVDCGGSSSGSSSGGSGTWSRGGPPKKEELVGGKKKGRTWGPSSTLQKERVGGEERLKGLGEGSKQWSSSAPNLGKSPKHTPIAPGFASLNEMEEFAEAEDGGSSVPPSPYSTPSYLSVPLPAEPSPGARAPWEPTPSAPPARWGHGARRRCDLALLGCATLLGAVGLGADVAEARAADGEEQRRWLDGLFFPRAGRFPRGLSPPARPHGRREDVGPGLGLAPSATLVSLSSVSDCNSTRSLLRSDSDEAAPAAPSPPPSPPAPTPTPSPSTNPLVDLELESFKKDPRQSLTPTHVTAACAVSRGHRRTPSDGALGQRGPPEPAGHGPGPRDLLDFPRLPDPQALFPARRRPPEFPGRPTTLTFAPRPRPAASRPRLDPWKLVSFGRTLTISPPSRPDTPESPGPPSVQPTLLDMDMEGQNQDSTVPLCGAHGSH

As for `CNc1c(-c2ccc(C(=O)N3CCC(N4CCOCC4)CC3)cc2)cnc2[nH]cc(Cl)c12` [Compound 96, (4-(3-chloro-4-(methylamino)-1H-pyrrolo[2,3-b]pyridin-5-yl)phenyl)(4-morpholinopiperidin-1-yl)methanone], the remaining binding at 1 µM was 100% on LIMK1; 99% on NEK5; 95% on TLK1; 39% on MLK2; 100% on EPHB4.
In the case of `O=C(c1ccc(-c2cnc3[nH]cc(Cl)c3c2NC2CCCC2)cc1)N1CCC(N2CCOCC2)CC1` [Compound 101, (4-(3-chloro-4-(cyclopentylamino)-1H-pyrrolo[2,3-b]pyridin-5-yl)phenyl)(4-morpholinopiperidin-1-yl)methanone], the remaining binding at 1 µM on LIMK1 came out at 76%; at NEK5 it was 99%; at TLK1 it was 90%; at MLK2 it was 69%; on EPHB4, 62%.
For `CNc1c(-c2cnn([C@H]3CCN(C(C)=O)C[C@@H]3F)c2)cnc2[nH]cc(Cl)c12` [Compound 77, 1-((3S,4S)-4-(4-(3-chloro-4-(methylamino)-1H-pyrrolo[2,3-b]pyridin-5-yl)-1H-pyrazol-1-yl)-3-fluoropiperidin-1-yl)ethan-1-one], the remaining binding at 1 µM at LIMK1 worked out at 100%; on NEK5, 79%; on TLK1 it was 95%; on MLK2, 62%; at EPHB4, 100%.
